pIC50: −log10 of the molar value. Counter-ions that a name gives are not always drawn.
How the values were obtained:
BCL-XL = biological target: T1, BCL-XL (Homo sapiens, UniProt Q07817); assay: Protein-protein interaction assay BCL-XL/Bad BH3 peptide (BCL-XL assay), TR-FRET; format: binding; conditions: His-BCL-XL / Bad BH3-derived peptide
T1 construct: BCL-XL (amino acids 1-212, C-terminal fused to a hexahistidine (6×His) tag); purchased BPS Bioscience (San Diego, Calif., USA); host or cells: E. coli
T1 sequence (Q07817 1-212): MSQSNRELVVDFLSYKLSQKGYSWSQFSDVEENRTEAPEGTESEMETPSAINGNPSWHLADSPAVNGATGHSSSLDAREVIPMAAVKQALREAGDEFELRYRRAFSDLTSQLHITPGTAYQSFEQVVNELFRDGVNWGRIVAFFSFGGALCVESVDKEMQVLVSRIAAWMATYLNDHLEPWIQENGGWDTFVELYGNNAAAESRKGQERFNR
Experimental: Protein-Protein Interaction Assay: BCL-XL/Bad BH3 Peptide (BCL-XL Assay)
(§1) The dose-dependent inhibition by the compounds described in this invention of the interaction between […] and the BH3 domain of Bad (both human) was determined using a steady state binding competition assay with time-resolved fluorescence energy transfer (TR-FRET) readout. For that purpose BCL-2 (amino acids 1-211, C-terminal fused to a hexahistidine (6×His) tag (SEQ ID NO: 3) and a synthetic Bad BH3-derived peptide of sequence Biotin-PEG2-PEG2-NLWAAQRYGRELRR-NIe-SDEFVDSFKK-amide (SEQ ID NO: 2) served as protein receptor and tracer ligand respectively. The recombinant BCL-2 protein (expressed in E. coli) was purchased from BPS Bioscience (San Diego, Calif., USA). The Bad BH3-derived peptide can be obtained from e.g. Biosyntan (Berlin, Germany).
(§2) In the assay 11 different concentrations of each compound (0.1 nM, 0.33 nM, 1.1 nM, 3.8 nM, 13 nM, 44 nM, 0.15 μM, 0.51 μM, 1.7 μM, 5.9 μM and 20 μM) were typically measured as duplicates in the same microtiter plate. For that, 100-fold concentrated DMSO solutions were prepared by serial dilutions (1:3.4) of a 2 mM stock solution in a clear, 384-well microtiter plate (Greiner Bio-One, Frickenhausen, Germany). From there, 50 nl were transferred in a dark test plate (Greiner Bio-One. Frickenhausen, Germany). The assay was initiated by addition of 2 μl of a 2,5-fold concentrated Hs-BCL-XL solution (usually for a 1 nM end concentration in 5 μl reaction volume) in aqueous assay buffer [50 mM Tris/HCl pH 7, 100 mM sodium chloride (NaCl), 50 mM potassium fluoride (KF), 0.005% Tween-20, 2 mM DTT, 0.1% bovine gamma globulin (BGG)] to the compounds in the assay plate. This was followed by a 10-minute incubation step at 22° C. for pre-equilibration of the putative complex between His-BCL-XL and the compounds.
(§3) The mixture was incubated in the dark for one hour at 22° C. and then overnight at 4° C. The formation of BCL-XL/Bad complexes was determined by measuring the resonance energy transfer of the anti-His- Eu-cryptate antibody to the streptavidin-XL665 present in the reaction. For that purpose, the fluorescence emission at 620 nm and 665 nm after excitation at 330-350 nm was measured in a TR-FRET measuring instrument, for instance a Rubystar or a Pherastar (both from BMG Lab Technologies, Offenburg, Germany) or a Viewlux (Perkin-Elmer). The ratio of the emission at 665 nm and at 622 nm was used as indicator of the amount of BCL-XL/Bad complexes present.
(§4) The resulting data (ratio) were normalized, taking 0% inhibition as the mean value of control measurements (usually 32 data points) where all reagents were included. In this case 50 nl DMSO were used instead of compounds. A 100% inhibition corresponded to the mean value of control measurements (usually 32 data points) where all reagents except BCL-XL were included. IC50 values were determined by regression analysis based on a 4 parameter equation (minimum, maximum, IC50, Hill; Y=Max+(Min−Max)/(1+(X/IC50)^Hill) using the Screener Software (Genedata).

BCL-2 = biological target: T2, BCL-2 (Homo sapiens, UniProt P10415); assay: Protein-protein interaction assay BCL-2/Bad BH3 peptide (BCL-2 assay), TR-FRET; format: binding; conditions: His-BCL-2 / Bad BH3-derived peptide, median
T2 construct: BCL-2 (amino acids 1-211, C-terminal fused to a hexahistidine (6×His) tag); purchased BPS Bioscience (San Diego, Calif., USA); host or cells: E. coli
T2 sequence (P10415 1-211): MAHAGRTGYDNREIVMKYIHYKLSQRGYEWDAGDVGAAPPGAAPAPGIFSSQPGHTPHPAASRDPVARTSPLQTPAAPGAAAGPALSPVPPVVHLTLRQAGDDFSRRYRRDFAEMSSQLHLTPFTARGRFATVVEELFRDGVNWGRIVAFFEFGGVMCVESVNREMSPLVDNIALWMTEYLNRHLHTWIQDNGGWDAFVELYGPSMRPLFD
Experimental: Protein-Protein Interaction Assay: BCL-2/Bad BH3 Peptide (BCL-2 Assay)
as §1, with “tag” for “tag (SEQ ID NO: 3)”, “Biotin-PEG2-PEG2-NLWAAQRYGRELRR-Nle-SDEFVDSFKK-amide” for “Biotin-PEG2-PEG2-NLWAAQRYGRELRR-NIe-SDEFVDSFKK-amide”
as §2, with “3.8 nM.” for “3.8 nM,”, “concentrated His-BCL-2” for “concentrated Hs-BCL-XL”, “between His-BCL-2” for “between His-BCL-XL”
as §3, with “BCL-2/Bad” for “BCL-XL/Bad”, “anti-His-Eu-cryptate” for “anti-His- Eu-cryptate”, “Technologies.” for “Technologies,”
as §4, with “BCL-2” for “BCL-XL”

pIC50 (BCL-XL)	IC50 (BCL-2) [µM]	Structure (SMILES)
< 4.70	> 20	Cc1c2c(nn1C)COCCCCn1c(C(=O)O)c(CCCOc3cccc4ccccc34)c3cccc-2c31 (single isomer, unassigned; enantiomer 1) [Example 1-37, (+)-2,3-dimethyl-7-[3-(naphthalen-1-yloxy)propyl]-2,10,11,12,13,15-hexahydropyrazolo[4′,3′:9,10][1,6]oxazacycloundecino[8,7,6-hi]indole-8-carboxylic Acid (Enantiomer 1)]
< 4.70	> 20	CN1CCCn2c(C(=O)O)c(CCCOc3cccc4ccccc34)c3cccc(c32)-c2c(CN3CCOCC3)nn(C)c2C1 (single isomer, unassigned; enantiomer 1) [Example 1-43, (+)-7,9-dimethyl-11-(morpholin-4-ylmethyl)-1-[3-(naphthalen-1-yloxy)propyl]-4,5,6,7,8,9-hexahydropyrazolo[3′,4′:7,8][1,5]diazecino[9,10,1-hi]indole-2-carboxylic Acid (Enantiomer 1)]
< 4.70	2.34	CN1CCCn2c(C(=O)O)c(CCCOc3cccc4ccccc34)c3cccc(c32)-c2c(COc3ccc(N4CCN(S(C)(=O)=O)CC4)cc3)nn(C)c2C1 (single isomer, unassigned; enantiomer 1) [Example 1-46, (+)-7,9-dimethyl-11-({4-[4-(methylsulfonyl)piperazin-1-yl]phenoxy}methyl)-1-[3-(naphthalen-1-yloxy)propyl]-4,5,6,7,8,9-hexahydropyrazolo[3′,4′:7,8][1,5]diazecino[9,10,1-hi]indole-2-carboxylic Acid (Enantiomer 1)]

More lines, now with the values behind:

Structure (SMILES)	pIC50 (BCL-XL)	IC50 (BCL-2) [µM]
Cc1nn(C)c2c1-c1cccc3c(CCCOc4cccc5cc(F)ccc45)c(C(=O)O)n(c13)CCCCOC2 (single isomer, unassigned; enantiomer 1) [Example 019, 7-{3-[(6-fluoronaphthalen-1-yl)oxy]propyl}-1,3-dimethyl-1,10,11,12,13,15-hexahydropyrazolo[4′,3′:9,10][1,6]oxazacycloundecino[8,7,6-hi]indole-8-carboxylic Acid-N-ethylethanamine Salt (Enantiomer 1)]	< 4.70	> 20
Cc1nn(C)c2c1-c1cccc3c(CCCOc4cccc5cc(Cl)ccc45)c(C(=O)O)n(c13)CCCCOC2 (single isomer, unassigned; enantiomer 1) [Example 041, 7-{3-[(6-chloronaphthalen-1-yl)oxy]propyl}-1,3-dimethyl-1,10,11,12,13,15-hexahydropyrazolo[4′,3′:9,10][1,6]oxazacycloundecino[8,7,6-hi]indole-8-carboxylic acid-N-ethylethanamine Salt (Enantiomer 1)]	< 4.70	> 20
Cc1nn(C)c2c1-c1cccc3c(CCCOc4cccc5cc(F)ccc45)c(C(=O)O)n(c13)CCCOC2 (single isomer, unassigned; enantiomer 1) [Example 047, 1-{3-[(6-fluoronaphthalen-1-yl)oxy]propyl}-9,11-dimethyl-5,6,8,9-tetrahydro-4H-pyrazolo[4′,3′:8,9][1,5]oxazecino[7,6,5-hi]indole-2-carboxylic acid-N-ethylethanamine Salt (Enantiomer 1)]	< 4.70	> 20
COCCn1nc2c(c1CN1CCOCC1)-c1cccc3c(CCCOc4cccc5ccccc45)c(C(=O)O)n(c13)CCCN(C)C2 (single isomer, unassigned; enantiomer 1) [Example 057, 10-(2-methoxyethyl)-7-methyl-11-(morpholin-4-ylmethyl)-1-[3-(naphthalen-1-yloxy)propyl]-4,5,6,7,8,10-hexahydropyrazolo[3′,4′:7,8][1,5]diazecino[9,10,1-hi]indole-2-carboxylic Acid (Enantiomer 1)]	< 4.70	> 20
Cc1c2c(nn1CCN1CCOCC1)CN(C)CCCn1c(C(=O)O)c(CCCOc3cccc4ccccc34)c3cccc-2c31 (single isomer, unassigned; enantiomer 1) [Example 060, 7,11-dimethyl-10-[2-(morpholin-4-yl)ethyl]-1-[3-(naphthalen-1-yloxy)propyl]-4,5,6,7,8,10-hexahydropyrazolo[3′,4′:7,8][1,5]diazecino[9,10,1-hi]indole-2-carboxylic Acid (Enantiomer 1)]	< 4.70	> 20
Cc1ccc2c(CCCOc3cccc4ccccc34)c(C(=O)O)n3c2c1-c1c(nn(C)c1C)CN(C)CCC3 (single isomer, unassigned; enantiomer 1) [Example 073, 7,10,11,12-tetramethyl-1-[3-(naphthalen-1-yloxy)propyl]-4,5,6,7,8,10-hexahydropyrazolo[3′,4′:7,8][1,5]diazecino[9,10,1-hi]indole-2-carboxylic Acid (Enantiomer 1)]	< 4.70	> 20
CCn1nc2c(c1C1CC1)-c1cccc3c(CCCOc4cccc5ccccc45)c(C(=O)O)n(c13)CCCCOC2 (single isomer, unassigned; enantiomer 1) [Example 082, 3-cyclopropyl-2-ethyl-7-[3-(naphthalen-1-yloxy)propyl]-2,10,11,12,13,15-hexahydropyrazolo[4′,3′:9,10][1,6]oxazacycloundecino[8,7,6-hi]indole-8-carboxylic acid-N-ethylethanamine Salt (Enantiomer 1)]	< 4.70	> 20

— patent US10981932B2, “Macrocyclic indole derivatives” (Bayer Aktiengesellschaft, priority 2016, dated 2021)
